Reference: PMC9273935, “Cooperative Binding of Substrate and Ions Drives Forward Cycling of the Human Creatine Transporter-1” (Frontiers in Physiology, 2022)

Experiments:
[1] = target: T1, human creatine transporter-1 (CRT-1, SLC6A8), C-terminally YFP-tagged (Homo sapiens, UniProt P48029); test: inhibition of [3H]creatine uptake in transfected HEK293 cells; type: cell-based
T1 construct: full-length cDNA in pEYFP-N1, C-terminal YFP tag, transiently expressed in HEK293 cells; oligomeric state not known
T1 sequence (P48029 1-635): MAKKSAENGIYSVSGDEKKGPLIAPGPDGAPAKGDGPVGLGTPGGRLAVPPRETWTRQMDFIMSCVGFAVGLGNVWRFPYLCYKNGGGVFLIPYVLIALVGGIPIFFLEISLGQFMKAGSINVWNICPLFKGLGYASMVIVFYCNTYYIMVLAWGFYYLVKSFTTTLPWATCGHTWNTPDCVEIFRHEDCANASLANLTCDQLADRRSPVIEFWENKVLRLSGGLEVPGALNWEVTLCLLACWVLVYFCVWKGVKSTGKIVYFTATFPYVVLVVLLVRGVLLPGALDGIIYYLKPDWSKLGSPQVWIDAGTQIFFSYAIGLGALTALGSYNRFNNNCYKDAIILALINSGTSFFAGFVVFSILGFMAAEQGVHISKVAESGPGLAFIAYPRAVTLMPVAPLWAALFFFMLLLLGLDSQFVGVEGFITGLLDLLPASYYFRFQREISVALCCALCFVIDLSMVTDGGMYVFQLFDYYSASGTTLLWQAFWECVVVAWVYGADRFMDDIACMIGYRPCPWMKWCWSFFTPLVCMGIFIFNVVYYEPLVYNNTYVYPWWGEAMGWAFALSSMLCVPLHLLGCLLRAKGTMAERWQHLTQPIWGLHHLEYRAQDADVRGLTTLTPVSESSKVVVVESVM

[2] = target: T1, human creatine transporter-1 (CRT-1, SLC6A8), C-terminally YFP-tagged; test: whole-cell patch clamp, substrate-induced transport current in transfected HEK293 cells; type: cell-based

IC50 [1] [µM]	EC50 [2] [µM]	Structure (SMILES)
105 ± 6.7	103 ± 4	NC1=NCC(C(=O)O)CN1 (centres unmarked) [ATPCA, 2-amino-1,4,5,6-tetrahydropyrimidine-5-carboxylic acid]
48.4 ± 7	34.8 ± 1.9	CN(CC(=O)O)C(=N)N [creatine]
167 ± 9.9	162 ± 8.49	NC1=NCCN1CC(=O)O [cyclocreatine]
18.8 ± 1.1	13.2 ± 0.73	N=C(N)NCCC(=O)O [β-guanidinopropionic acid]
